The test system of this experiment is isomerase (recovery of 11-cis-retinal after bleaching). Briefly: In vivo murine isomerase assay. As to conditions: mice, oral gavage.

SMILES strings stand for the structures.

Procedure: The capability of compounds described herein to inhibit isomerase was determined by an in vivo murine isomerase assay. […] The recovery of 11-cis-retinal after bleaching can be used to estimate the activity of isomerase in vivo. Delayed recovery, as represented by lower 11-cis-retinal oxime levels, indicates inhibition of isomerization reaction.
Mice were gavaged with the test compound. […] The mice were allowed to recover 2 hours in the dark. The animals were then sacrificed by carbon dioxide inhalation. Retinoids were extracted from the eye and the regeneration of 11-cis-retinal was assessed at various time intervals.
After the mice were sacrificed, the eyes were immediately removed and placed in liquid nitrogen for storage.
The eyes were placed in 500 μL of bis-tris propane buffer (10 mM, pH˜7.3) and 20 μL of 0.8M hydroxile amine (pH˜7.3). The eyes were cut up into small pieces with small iris scissors and then thoroughly homogenized at 30000 rpm with a mechanical homogenizer (Polytron PT 1300 D) in the tube until no visible tissue remained. 500 μL of methanol and 500 μL of heptane were added to each tube. The tubes were attached to a vortexer so that the contents were mixed thoroughly for 15 minutes in room temperature. The organic phase was separated from the aqueous phase by centrifugation for 10 min at 13K rpm, 4° C. 240 μL of the solution from the top layer (organic phase) was removed and transferred to clean 300 μl glass inserts in HPLC vials using glass pipette and the vials were crimped shut tightly.
The samples were analyzed on an Agilent 1100 HPLC system with normal phase column: SILICA (Beckman Coutlier, dp 5 μm, 4.6 mM×250 mM). […] Loading volume for each sample was 100 μA detection wavelength was 360 nm. The area under the curve for 11-cis retinal oxime was calculated by Agilent Chemstation software and was recorded manually. Data processing was performed using Prizm software.
Positive control mice (no compound administered) were sacrificed fully dark-adapted and the eye retinoids analyzed. Light (bleached) control mice (no compound administered) were sacrificed and retinoids isolated and analyzed immediately after light treatment.
A time course study was performed to determine the isomerase inhibitory activity of the test compound. […] The animals were then “photo-bleached” (5000 Lux white light for 10 minutes) at 2, 4, 8, 16 and 24 hours after dosing, and returned to darkness to allow recovery of the 11-cis-retinal content of the eyes. Mice were sacrificed 2 hours after bleaching, eyes were enucleated, and retinoid content is analyzed by HPLC.
Recovery control mice (vehicle-only treated) were light-treated and left to recover for 2 hours in the dark before sacrifice and analysis. Light control mice (vehicle only treated) were sacrificed for analysis immediately after photo-bleaching.
An in vivo dose response isomerase inhibition study was performed with test compound. […] Recovery and retinoid analysis were performed as described above. Dark control mice were vehicle-only treated, sacrificed fully dark adapted without light treatment, and analyzed. Recovery control mice and light control mice were included in the study as per the initial phase.

`NCC[C@@H](O)c1cccc(OCC2CCOCC2)c1` [Example 1]: the % Inhibition (usually the relative decrease from the control value, in per cent) runs as follows: (dose 0.3 mg/kg, time 2 h) 40.2%; (dose 1 mg/kg, time 2 h) 96.7%; (dose 1 mg/kg, time 4 h) 92.8%.
